Reference: article PMC10137179, “Assessment of Covalently Binding Warhead Compounds in the Validation of the Cytomegalovirus Nuclear Egress Complex as an Antiviral Target” (Cells, 2023)
Where two headings read alike, the source gives them in different places.

Assays:
in vitro = type: cell-based, human; details: human
Description: (§1) Cytotoxicity of the analyzed compounds was determined by the Neutral Red dye uptake assay. A total of 1.35 × 10^5 HFFs per well were seeded in 96-well plates 1 d prior to analysis, cultivated overnight until cells were confluent and then incubated with compounds for 7 days. The assay was performed as described previously using 40 μg/mL Neutral Red (Sigma Aldrich). The quantity of dye incorporation was determined using the Victor X4 microplate reader (PerkinElmer, Waltham, MA, USA) by fluorescence measurement at 560/630 nm for excitation/emission, respectively. To assess antiviral activity of compounds, HFFs seeded in 96-well plates (1.35 × 10^5 HFFs per well) were infected with HCMV AD169-GFP or TB40-IE2-YFP to reach 25–50% infected cells at 7 days post-infection (d p.i.). After incubation with the infectious inoculum for 1.5 h at 37 °C, compounds were added in serial dilutions. At 7 d p.i., cells were fixed for 10 min at room temperature using 10% formalin. Finally, cells were washed once with PBS followed by automated fluorescence quantitation.

HCMV AD169-GFP = assay: microbe, parasite or virus in culture; type: cell-based, human cytomegalovirus (HCMV); details: AD169-GFP-infected HFFs, 7 d p.i., 0.1 µM to 50 µM; for EC50: Human betaherpesvirus 5, AD169, 168 h, clinically relevant warheads
Description: as §1
Seeking for a novel group of potential antiviral agents, small molecules with covalent protein-binding activity were investigated. These small molecules, originally developed as kinase inhibitors, carry a so-called warhead moiety as an important functional group, such as the prototype afatinib (Figure 1A, red circle). In this study, a series of newly generated warhead compounds (most of which are the property of B.K./Lead Discovery Center, Dortmund, Germany) were used for an evaluation of putative antiviral and core NEC-inhibitory properties. In a first step, the antiviral activity of warheads was analyzed against HCMV TB40-IE2-YFP (Figure 1B) and AD169-GFP (Figure 1C). To this end, HFFs were infected with either of the two viral strains before the GFP or YFP reporter signals were measured at 7 d p.i. (in parallel, putative compound cytotoxicity was determined by Neutral Red assay). The HCMVs AD169-GFP and TB40-IE2-YFP, based on BAC-derived recombinants of the laboratory strains AD169 and TB40, respectively, were both propagated on HFFs, and the produced stocks were then used as two reporter viruses for the assessement of antiviral drug activity. While strain AD169 is mainly restricted in its tropism to fibroblasts, TB40 tropism can be extended to fibroblasts and epithelial and endothelial cells. Here, the use of two strains was intended to illustrate the assumption that antiviral activity of these warhead compounds may be directed to conserved viral target proteins, thus pointing out a minor impact of strains.
(A) Chemical structure of a clinically approved prototype of covalently binding warhead inhibitors, […], afatinib/Gilotrif®. The red circle identifies a functionally active α-, β-unsaturated carbonyl group. (B) At 7 d p.i., compounds were analyzed for their cytotoxicity (orange) and antiviral activity (blue) during HCMV infection, using TB40-IE2-YFP as a reporter virus. Cell viability was assessed through Neutral Red staining of uninfected cells. Measurements were performed in quadruplicate (YFP fluorometry) or triplicate (Neutral Red assay), and standard deviations of mean values are given; EC50, CC50 and SI values are indicated accordingly. (C) In a parallel series of analyses, HCMV AD169-GFP was used as another reporter virus representing a second viral strain. […] HCMV AD169-GFP-infected HFFs were treated with 0.1 µM to 50 µM of the compounds (in parallel Neutral Red assay, 0.1 µM to 100 µM), before the signal assessments were performed at 7 d p.i.

[1] = target: T1, pUL50–pUL53 interaction (LgBiT::UL53-Flag + SmBiT::UL50-HA) (Human cytomegalovirus, UniProt P16791); type: cell-based; details: 293T cells, 5×, 1× or 0.2× anti-HCMV EC50 levels, full-length LgBiT::UL53-Flag
T1 construct: expressed in transfected cells; host or cells: 293T

[2] = target: T2, pUL50–pUL53 interaction (LgBiT::UL53(1–87)-Flag + SmBiT::UL50-HA) (Human cytomegalovirus, UniProt P16791); type: cell-based; details: 293T cells, 5×, 1× or 0.2× anti-HCMV EC50 levels, truncated LgBiT::UL53(1–87)-Flag
T2 construct: expressed in transfected cells; host or cells: 293T

[3] = tested on: HFF-UL50, HFFs, MRC-5 and 293T cells; assay: Neutral Red cytotoxicity of Shield-1 on four cell types; details: Shield-1 0.04–10 µM, 4 (293T) or 7 d post-treatment
Description: Analysis of putative cytotoxicity of the synthetic ligand Shield-1 on different cell
types. Four different types of cells (recombinant complementing cells HFF-UL50, primary HFFs and
and MRC-5 cells, and immortalized 293T) were treated with various concentrations of Shield-1
(0.04–10 µM as shown on the right). At 4 (293T) or 7 d post-treatment, cell viability was assessed by
Neutral Red staining. Data are presented as mean values ± SD over three biological replicates.
Cytotoxic staurosporine (STP, 1 µM) served as a positive control, DMSO-treated cells as a negative
SmBiT::UL50-HA = target: T3, SmBiT::UL50-HA (human cytomegalovirus (HCMV), UniProt P16791 1-397); assay: split reporter (BiFC, NanoBiT); NanoBiT in 293T cells cotransfected with LgBiT and SmBiT constructs; NanoGlo Live Cell Assay, luminescence at 37 °C; background of LgBiT without SmBiT subtracted; some samples with warhead compounds (LDC compounds, ibrutinib and others); details: partners not purified
T3 construct: also called pUL50; HCMV core NEC groove protein; source: 293T cells, transiently transfected (PEI), in live cells
T3 sequence: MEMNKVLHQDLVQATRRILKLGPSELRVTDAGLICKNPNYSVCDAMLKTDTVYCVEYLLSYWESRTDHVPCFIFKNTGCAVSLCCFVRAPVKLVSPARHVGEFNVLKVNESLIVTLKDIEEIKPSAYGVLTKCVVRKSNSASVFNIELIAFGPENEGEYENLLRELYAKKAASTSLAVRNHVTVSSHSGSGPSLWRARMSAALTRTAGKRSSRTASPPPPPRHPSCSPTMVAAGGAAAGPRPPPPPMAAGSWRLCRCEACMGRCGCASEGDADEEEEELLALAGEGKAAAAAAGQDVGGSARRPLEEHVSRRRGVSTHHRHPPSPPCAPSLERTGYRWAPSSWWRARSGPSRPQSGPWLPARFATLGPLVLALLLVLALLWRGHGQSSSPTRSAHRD

Which results are given for COC(=O)[C@]12CCC(C)(C)C[C@H]1[C@H]1C(=O)C=C3[C@@]4(C)C=C(C#N)C(=O)C(C)(C)[C@@H]4CC[C@@]3(C)[C@]1(C)CC2 [CDDO-Me, 2-cyano-3,12-dioxooleana-1,9(11)-dien-28-oic acid methyl ester]?
CC50 at 7 days (in vitro): > 0.8 µM; antiviral activity (in words) (HCMV AD169-GFP): no notable antiviral activity; EC50 (HCMV AD169-GFP): < 0.4 µM

For CCOc1cc2ncc(C#N)c(Nc3ccc(OCc4ccccn4)c(Cl)c3)c2cc1NC(=O)/C=C/CN(C)C [neratinib], which CC50 at 7 days (in vitro; CC50) is on record?
Its CC50 at 7 days is 37 ± 1 µM.

And the EC50 (HCMV AD169-GFP)?
The EC50 was 0.3 ± 0.1 µM.

For C=C1C(=O)O[C@H]2[C@H]1CC/C(C)=C/CC[C@@]1(C)O[C@@H]21 [parthenolide], which CC50 at 7 days (in vitro; CC50) is on record?
The CC50 at 7 days was 9 ± 0.4 µM.

What about the “antiviral activity (in words)” value (HCMV AD169-GFP) of the same molecule?
Its value is “no notable antiviral activity”.

And the EC50 (HCMV AD169-GFP)?
Its EC50 is 6.7 ± 3.4 µM.

Which results are given for C=CC(=O)Nc1cc(Nc2nccc(-c3cn(C)c4ccccc34)n2)c(OC)cc1N(C)CCN(C)C [osimeritinib]?
CC50 at 7 days (in vitro; clinically relevant warheads, 0.1 µM to 100 µM, Neutral Red, uninfected HFFs, 7 d, read-out: CC50): 23 µM; EC50 (HCMV AD169-GFP): 1 ± 0.8 µM; inhibitory effect on NanoBiT interaction signal (in words) [1]: very minor or no effects; inhibitory effect on NanoBiT interaction signal (in words) [2]: very minor or no effects

Which “cytotoxic potential (in words)” value [3] does the source give for CC[C@H](C(=O)N1CCCC[C@H]1C(=O)O[C@H](CCc1ccc(OC)c(OC)c1)c1cccc(OCCN2CCOCC2)c1)c1cc(OC)c(OC)c(OC)c1 [Shield-1] here?
The value was “low cytotoxic potential”.

What does the source list for C=C1C(=O)O[C@@H]2C[C@@]3(C)CCC[C@H](C)C3=C[C@H]12 [alantolactone]?
CC50 at 7 days (in vitro): 23 ± 5 µM; EC50 (HCMV AD169-GFP): 3.2 ± 1.3 µM; inhibitory effect on NanoBiT interaction signal (in words) [1]: very minor or no effects; inhibitory effect on NanoBiT interaction signal (in words) [2]: very minor or no effects

B1: LgBiT::UL53(1–87)-Flag (domain or fragment)
chain: MSSVSGVRTPRERRSALRSLLRKRRQRELASKVASTVNGATSANNHGEPPSPADARPRLTLHDLHDIFREHPELELKYLNMMKMAIT
notes: source: 293T cells, transiently transfected (PEI), in live cells
For B1, which “NanoBiT signal strength relative to LgBiT::UL53-Flag + SmBiT::UL50-HA (100%)” value (SmBiT::UL50-HA) is on record?
The value was 288%.
